Test results: US20200069679A1, “NINTEDANIB FOR USE IN METHODS FOR THE TREATMENT OF INTERSTITIAL LUNG DISEASES BY COADMINISTRATION WITH OLADATEROL” (Boehringer Ingelheim International GmbH, priority 2016, published 2020)

Tested on: TGF-β induced ET-1 release in cultured human lung fibroblasts (IPF-HLF)
Test: TGF-β induced ET-1 release in cultured human lung fibroblasts from IPF patients (ELISA of supernatant)
Type: cell-based
Details: IPF-HLF stimulated with TGF-β for 48 h, n=6 incubations, normalized to unstimulated (=100% inhibition) and TGF-β-stimulated (=0% inhibition) ET-1 levels
Description: The principle of the assay is the incubation of IPF-HLF with transforming growth factor beta (TGF-β) for 48 h. In the cell culture supernatant the concentration of the pro-fibrotic mediator endothelin-1 (ET-1) was determined by enzyme linked immune sorbent assay.
HLFs from 5 different patients with idiopathic pulmonary fibrosis (IPF) were used to do repeated measurements. For the control groups without TGF-β stimulation, data sets from 11 incubations were included and for TGF-β-stimulated fibroblasts data sets from 12 incubations were included. For all olodaterol and/or nintedanib-treated groups, n=6 incubations were conducted. The experiments were conducted in the presence of nintedanib at 30 nM concentration and/or olodaterol at 1 pM (FIG. 1), 10 pM (FIG. 2) and 100 pM (FIG. 3) concentrations, respectively.

SMILES: COC(=O)c1ccc2c(c1)NC(=O)/C2=C(\Nc1ccc(N(C)C(=O)CN2CCN(C)CC2)cc1)c1ccccc1 [nintedanib]
- reduction of ET-1 release (nintedanib at 30 nM): 7%

SMILES: COc1ccc(CC(C)(C)NC[C@H](O)c2cc(O)cc3c2OCC(=O)N3)cc1 [olodaterol]
- reduction of ET-1 release (olodaterol at 1-100 pM): 1%-47%
